US9550782B2, “Compounds and methods for treating diabetes” (Medivation Technologies, Inc., priority 2011, dated 2017)
Read-outs that look alike come from different tables or passages of the source. Each block holds one compound with its values, some of them ahead of it.

What was measured:
[1] = molecular target: T1, rat adrenergic α1B receptor (Rattus norvegicus, UniProt P15823); assay: Radioligand binding, adrenergic α1B ([3H]Prazosin); set-up: species or system Wistar Rat; settings: for Percentage inhibition of ligand binding, Adrenergic α1B (0.1 μM): repeat datapoints each shown
T1 construct: rat adrenergic α1B receptor obtained from Wistar Rat liver; from tissue; host or cells: Wistar rat liver
T1 sequence (P15823 1-515): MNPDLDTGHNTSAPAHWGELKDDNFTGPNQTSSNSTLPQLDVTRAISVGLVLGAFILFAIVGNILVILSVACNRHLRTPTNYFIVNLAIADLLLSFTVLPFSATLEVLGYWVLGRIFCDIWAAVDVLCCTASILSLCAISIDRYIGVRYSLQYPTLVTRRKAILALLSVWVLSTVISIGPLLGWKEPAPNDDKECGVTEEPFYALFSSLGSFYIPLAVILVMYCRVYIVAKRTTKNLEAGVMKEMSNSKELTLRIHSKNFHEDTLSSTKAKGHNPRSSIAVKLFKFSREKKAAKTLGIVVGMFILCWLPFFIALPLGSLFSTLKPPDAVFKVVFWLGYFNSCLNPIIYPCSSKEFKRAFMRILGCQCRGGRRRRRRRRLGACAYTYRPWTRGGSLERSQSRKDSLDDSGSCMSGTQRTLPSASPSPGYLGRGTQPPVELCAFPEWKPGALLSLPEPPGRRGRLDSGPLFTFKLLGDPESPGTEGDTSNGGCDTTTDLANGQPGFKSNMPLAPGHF
Method in brief: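 Specific binding, taken as total minus that remaining with 10 μM phentolamine, is measured after filtration and counting. Rat liver receptor preparation and 0.25 nM [3H]prazosin are incubated with compound in 50 mM Tris-HCl (pH 7.4, 0.5 mM EDTA) at 25° C for 60 min. Activity is reported as percent inhibition.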

[2] = molecular target: T2, human recombinant adrenergic α2B receptor (Homo sapiens, UniProt P18089); assay: Radioligand binding, adrenergic α2B ([3H]Rauwolscine); settings: for Percentage inhibition of ligand binding, Adrenergic α2B (0.1 μM): repeat datapoints each shown
T2 construct: expressed in transfected cells; host or cells: CHO-K1
T2 sequence (P18089 1-450): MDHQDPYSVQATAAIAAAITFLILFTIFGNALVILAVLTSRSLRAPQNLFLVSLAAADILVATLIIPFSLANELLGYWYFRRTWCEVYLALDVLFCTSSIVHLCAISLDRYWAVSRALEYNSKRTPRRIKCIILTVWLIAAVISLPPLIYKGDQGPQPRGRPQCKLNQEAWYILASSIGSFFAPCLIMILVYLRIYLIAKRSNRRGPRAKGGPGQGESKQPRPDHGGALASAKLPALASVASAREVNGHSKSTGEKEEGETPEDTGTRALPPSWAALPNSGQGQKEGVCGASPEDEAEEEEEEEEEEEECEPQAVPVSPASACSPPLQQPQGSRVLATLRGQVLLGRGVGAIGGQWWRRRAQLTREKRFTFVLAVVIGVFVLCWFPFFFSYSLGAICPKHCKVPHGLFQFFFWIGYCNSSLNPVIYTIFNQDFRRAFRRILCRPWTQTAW
Method in brief: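 Assay used CHO-K1-expressed human α2B receptor in Tris-HCl pH 7.4 buffer with MgCl2, EDTA and BSA; 60 min incubation at 25 °C.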

[3] = molecular target: T3, human recombinant adrenergic α1D receptor (Homo sapiens, UniProt P25100); assay: Radioligand binding, adrenergic α1D ([3H]Prazosin); settings: for Percentage inhibition of ligand binding, Adrenergic α1D (0.1 μM): repeat datapoints each shown
T3 construct: expressed in transfected cells; host or cells: HEK-293
T3 sequence (P25100 1-572): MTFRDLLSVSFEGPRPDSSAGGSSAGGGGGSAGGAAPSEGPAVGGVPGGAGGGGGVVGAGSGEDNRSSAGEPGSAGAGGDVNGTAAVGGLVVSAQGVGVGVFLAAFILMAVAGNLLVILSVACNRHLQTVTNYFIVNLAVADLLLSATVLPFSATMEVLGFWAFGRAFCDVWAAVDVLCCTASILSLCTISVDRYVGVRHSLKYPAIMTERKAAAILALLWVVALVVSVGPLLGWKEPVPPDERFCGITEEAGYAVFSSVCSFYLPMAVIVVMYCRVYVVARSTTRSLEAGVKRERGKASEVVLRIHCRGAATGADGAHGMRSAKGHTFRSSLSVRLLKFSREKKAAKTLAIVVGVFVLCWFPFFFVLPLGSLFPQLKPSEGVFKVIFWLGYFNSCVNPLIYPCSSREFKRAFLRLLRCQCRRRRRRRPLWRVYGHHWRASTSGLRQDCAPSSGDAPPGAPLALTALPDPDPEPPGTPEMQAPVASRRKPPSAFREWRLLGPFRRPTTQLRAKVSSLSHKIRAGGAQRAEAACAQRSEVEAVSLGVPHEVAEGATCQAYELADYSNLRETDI
Method: Compounds were incubated with 0.6 nM [^3H]Prazosin for 60 min at 25° C. Non-specific binding was estimated in the presence of 10 μM phentolamine. Receptor proteins were filtered and washed, the filters were then counted to determine [^3H]Prazosin specifically bound. […] Biochemical assay results are presented as the percent inhibition of specific binding in Table B1.

[4] = molecular target: T4, human recombinant adrenergic α2A receptor (Homo sapiens, UniProt P08913); assay: Radioligand binding, adrenergic α2A ([3H]MK-912); settings: [3H]MK-912
T4 construct: expressed in transfected cells; host or cells: insect Sf9 cells
T4 sequence (P08913 1-465): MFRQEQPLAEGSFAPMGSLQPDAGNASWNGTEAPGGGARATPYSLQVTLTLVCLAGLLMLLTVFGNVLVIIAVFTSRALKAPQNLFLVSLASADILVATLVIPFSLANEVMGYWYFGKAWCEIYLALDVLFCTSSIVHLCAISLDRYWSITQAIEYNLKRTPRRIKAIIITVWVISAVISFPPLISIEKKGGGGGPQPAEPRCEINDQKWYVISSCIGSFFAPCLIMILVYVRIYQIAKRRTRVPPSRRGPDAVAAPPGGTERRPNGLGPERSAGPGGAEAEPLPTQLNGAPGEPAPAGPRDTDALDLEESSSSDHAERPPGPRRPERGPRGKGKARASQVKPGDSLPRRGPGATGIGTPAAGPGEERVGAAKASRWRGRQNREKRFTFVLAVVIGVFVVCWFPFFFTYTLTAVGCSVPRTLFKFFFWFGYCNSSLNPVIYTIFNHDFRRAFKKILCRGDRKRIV
Method in brief: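 Displacement of 1 nM [3H]MK-912 from receptor produced in insect Sf9 cells was measured after 60 min at 25 °C. Readout: percent inhibition of specific binding.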

[5] = compound at 0.1 μM, repeat datapoints each shown

Percentage inhibition of ligand binding, Adrenergic α1B (0.1 μM) ([1]; compound at 0.1 μM, 0.1 µM): −2%
Percentage inhibition of ligand binding, Adrenergic α2B (0.1 μM) ([2]; compound at 0.1 μM, 0.1 µM): −3%
Percentage inhibition of ligand binding, Adrenergic α1D (0.1 μM) ([3]; compound at 0.1 μM, 0.1 µM): 23%
SMILES: CCCCC(O)(Cn1c2c(c3cc(Cl)ccc31)CN(C)CC2)c1ccc(F)cc1 (single isomer, unassigned) [33a]

Percentage inhibition of ligand binding, Adrenergic α1B (0.1 μM) ([1]; compound at 0.1 μM, 0.1 µM): 0%
Percentage inhibition of ligand binding, Adrenergic α2B (0.1 μM) ([2]; compound at 0.1 μM, 0.1 µM): 2%
Percentage inhibition of ligand binding, Adrenergic α2A (0.1 μM) [4, 5]: −7%
Percentage inhibition of ligand binding, Adrenergic α1D (0.1 μM) ([3]; compound at 0.1 μM, 0.1 µM): 14%
SMILES: CCCCC(O)(Cn1c2c(c3cc(Cl)ccc31)CN(C)CC2)c1ccc(F)cc1 (single isomer, unassigned) [33b]

Percentage inhibition of ligand binding, Adrenergic α1B (0.1 μM) ([1]; compound at 0.1 μM, 0.1 µM): −2%
Percentage inhibition of ligand binding, Adrenergic α2B (0.1 μM) ([2]; compound at 0.1 μM, 0.1 µM): 1%
Percentage inhibition of ligand binding, Adrenergic α2A (0.1 μM) ([4]; compound at 0.1 μM, repeat datapoints each shown, 0.1 µM): 3%
Percentage inhibition of ligand binding, Adrenergic α1D (0.1 μM) ([3]; compound at 0.1 μM, 0.1 µM): 13%
SMILES: CCC(O)(Cn1c2c(c3cc(C)ccc31)CN(C)CC2)c1ccc(F)cc1 (single isomer, unassigned) [34b]

Percentage inhibition of ligand binding, Adrenergic α1B ([1]; compound at 0.1 μM, 0.1 µM): 27%
Percentage inhibition of ligand binding, Adrenergic α2B ([2]; compound at 0.1 μM): −10%
Percentage inhibition of ligand binding, Adrenergic α2A ([4]; compound at 0.1 μM, 0.1 µM): 33%
Percentage inhibition of ligand binding, Adrenergic α1D ([3]; compound at 0.1 μM, 0.1 µM): 12%
SMILES: CC(Cn1c2c(c3ccccc31)CN(C)CC2)c1ccc(F)cc1 (single isomer, unassigned) [272a]

Percentage inhibition of ligand binding, Adrenergic α1B ([1]; compound at 0.1 μM, 0.1 µM): 30%
Percentage inhibition of ligand binding, Adrenergic α2A ([4]; compound at 0.1 μM, 0.1 µM): 68%
Percentage inhibition of ligand binding, Adrenergic α1D ([3]; compound at 0.1 μM, 0.1 µM): 36%
SMILES: CC(Cn1c2c(c3ccccc31)CN(C)CC2)c1ccc(F)cc1 (single isomer, unassigned) [272b]

Percentage inhibition of ligand binding, Adrenergic α2B ([2]; compound at 0.1 μM): 104%
Percentage inhibition of ligand binding, Adrenergic α1D ([3]; compound at 0.1 μM, 0.1 µM): 88%
SMILES: Cc1ccc2c(c1)c1c(n2CC(C)c2ccc(F)cc2)CCN(C)C1 (single isomer, unassigned) [288a]

Percentage inhibition of ligand binding, Adrenergic α1B ([1]; compound at 0.1 μM): 39%
Percentage inhibition of ligand binding, Adrenergic α2A ([4]; compound at 0.1 μM): 67%
Percentage inhibition of ligand binding, Adrenergic α1D ([3]; compound at 0.1 μM, 0.1 µM): 17%
SMILES: Cc1ccc2c(c1)c1c(n2CC(C)c2ccc(F)cc2)CCN(C)C1 (single isomer, unassigned) [288b]

Percentage inhibition of ligand binding, Adrenergic α1B ([1]; compound at 0.1 μM, 0.1 µM): 51%
Percentage inhibition of ligand binding, Adrenergic α2A ([4]; compound at 0.1 μM, 0.1 µM): 60%
Percentage inhibition of ligand binding, Adrenergic α1D ([3]; compound at 0.1 μM, 0.1 µM): 57%
SMILES: Cc1ccc2c(c1)c1c(n2CC(C)c2ccc(C)nc2)CCN(C)C1 (single isomer, unassigned) [289a]

Percentage inhibition of ligand binding, Adrenergic α1B ([1]; compound at 0.1 μM, 0.1 µM): 12%
Percentage inhibition of ligand binding, Adrenergic α2B ([2]; compound at 0.1 μM): 54%
Percentage inhibition of ligand binding, Adrenergic α2A ([4]; compound at 0.1 μM, 0.1 µM): 53%
Percentage inhibition of ligand binding, Adrenergic α1D ([3]; compound at 0.1 μM, 0.1 µM): −2%
SMILES: Cc1ccc2c(c1)c1c(n2CC(C)c2ccc(C)nc2)CCN(C)C1 (single isomer, unassigned) [289b]

Percentage inhibition of ligand binding, Adrenergic α1B (0.1 μM) ([1]; compound at 0.1 μM): 9%
Percentage inhibition of ligand binding, Adrenergic α2B (0.1 μM) ([2]; compound at 0.1 μM): 62%
Percentage inhibition of ligand binding, Adrenergic α2A (0.1 μM) [4, 5]: 20%
Percentage inhibition of ligand binding, Adrenergic α1D (0.1 μM) ([3]; compound at 0.1 μM): 6%
SMILES: CCC(O)(Cn1c2c(c3cc(C)ccc31)CN(C)CC2)c1ccncc1 (stereo not drawn) [35a]

inhibition at 0.1 µM ([1]; read-out: Percentage inhibition of ligand binding, Adrenergic α1B (0.1 μM), compound at 0.1 μM, repeat datapoints each shown): 30%
inhibition at 0.1 µM ([2]; read-out: Percentage inhibition of ligand binding, Adrenergic α2B (0.1 μM), compound at 0.1 μM, repeat datapoints each shown): 38%
inhibition at 0.1 µM ([4]; read-out: Percentage inhibition of ligand binding, Adrenergic α2A (0.1 μM), compound at 0.1 μM, repeat datapoints each shown): 28%
inhibition at 0.1 µM ([3]; read-out: Percentage inhibition of ligand binding, Adrenergic α1D (0.1 μM), compound at 0.1 μM, repeat datapoints each shown): 2%
SMILES: CCC(O)(Cn1c2c(c3cc(C)ccc31)CN(C)CC2)c1ccc(F)cc1 (stereo not drawn) [compound 34]

inhibition at 0.1 µM ([1]; compound at 0.1 μM, read-out: Percentage inhibition of ligand binding, Adrenergic α1B): 79%
inhibition at 0.1 µM ([2]; compound at 0.1 μM, read-out: Percentage inhibition of ligand binding, Adrenergic α2B): 97%
inhibition at 0.1 µM ([4]; compound at 0.1 μM, read-out: Percentage inhibition of ligand binding, Adrenergic α2A): 86%
inhibition at 0.1 µM ([3]; compound at 0.1 μM, read-out: Percentage inhibition of ligand binding, Adrenergic α1D): 56%
SMILES: Cc1ccc2c(c1)c1c(n2CCc2sccc2C)CCN(C)C1 [compound 308]
